Laboratory results taken from the supplement of paper PMC10307832.

What was measured:
Assay in all cases: relative viability (nuclei count vs DMSO), 5 days (fraction); higher = more cells survive
NCI-H2170 = system: NCI-H2170
Method in brief: (§1)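 Cells from lung cancer lines were seeded into 1536-well plates and, one day later, dosed by pin tool. Treatments were either a single drug or a fixed dose of an anchor drug with five library-drug doses (not always all listed) in √10 steps. After 5 days, nuclei were stained in a one-step fixation (final 0.05% Triton X-100, 1% formaldehyde, 1 ug/ml Hoechst) and counted on 4× images, and relative viability is the treated-to-vehicle nuclei ratio, as the median of duplicate plates.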

A-427 = system: A-427
Method in brief: as §1

EKVX = system: EKVX
Method in brief: as §1

PC-3 [JPC-3] = system: PC-3 [JPC-3]
Method in brief: as §1

ChaGo-K-1 = system: ChaGo-K-1
Method in brief: as §1

NCI-H441 = system: NCI-H441
Method in brief: as §1

HCC-366 = system: HCC-366
Method in brief: as §1

EMC-BAC-2 = system: EMC-BAC-2
Method in brief: as §1

LK-2 = system: LK-2
Method in brief: as §1

NCI-H1755 = system: NCI-H1755
Method in brief: as §1

COR-L 105 = system: COR-L 105
Method in brief: as §1

SW 900 = system: SW 900
Method in brief: as §1

SK-MES-1 = system: SK-MES-1
Method in brief: as §1

NCI-H1975 = system: NCI-H1975
Method in brief: as §1

NCI-H520 = system: NCI-H520
Method in brief: as §1

NCI-H1734 = system: NCI-H1734
Method in brief: as §1

NCI-H1666 = system: NCI-H1666
Method in brief: as §1

NCI-H596 = system: NCI-H596
Method in brief: as §1

LOU-NH91 = system: LOU-NH91
Method in brief: as §1

NCI-H23 = system: NCI-H23
Method in brief: as §1

H3255 = system: H3255
Method in brief: as §1

SMILES: CC(=O)O[C@@]12CO[C@@H]1C[C@H](O)[C@@]1(C)C(=O)[C@H](O)C3=C(C)[C@@H](OC(=O)[C@H](O)[C@@H](NC(=O)OC(C)(C)C)c4ccccc4)C[C@@](O)([C@@H](OC(=O)c4ccccc4)[C@H]21)C3(C)C [Docetaxel] + Cc1cc(Nc2cc(N3CCN(C)CC3)nc(Sc3ccc(NC(=O)C4CC4)cc3)n2)n[nH]1 [Tozasertib] (partner 0.1 µM)
- relative viability (NCI-H2170; first compound 0.0002 µM): 0.615
- relative viability (NCI-H2170; first compound 0.000632 µM): 0.581
- relative viability (NCI-H2170; first compound 0.002 µM): 0.43
- relative viability (NCI-H2170; first compound 0.006325 µM): 0.222
- relative viability (NCI-H2170; first compound 0.02 µM): 0.175
- relative viability (A-427; first compound 0.0002 µM): 0.176
- relative viability (A-427; first compound 0.000632 µM): 0.237
- relative viability (A-427; first compound 0.002 µM): 0.193
- relative viability (A-427; first compound 0.006325 µM): 0.162
- relative viability (A-427; first compound 0.02 µM): 0.132
- relative viability (EKVX; first compound 0.0002 µM): 0.519
- relative viability (EKVX; first compound 0.000632 µM): 0.409
- relative viability (EKVX; first compound 0.002 µM): 0.224
- relative viability (EKVX; first compound 0.006325 µM): 0.212
- relative viability (EKVX; first compound 0.02 µM): 0.149
- relative viability (PC-3 [JPC-3]; first compound 0.0002 µM): 0.851
- relative viability (PC-3 [JPC-3]; first compound 0.000632 µM): 0.78
- relative viability (PC-3 [JPC-3]; first compound 0.002 µM): 0.426
- relative viability (PC-3 [JPC-3]; first compound 0.006325 µM): 0.209
- relative viability (PC-3 [JPC-3]; first compound 0.02 µM): 0.118
- relative viability (ChaGo-K-1; first compound 0.0002 µM): 0.218
- relative viability (ChaGo-K-1; first compound 0.002 µM): 0.201
- relative viability (ChaGo-K-1; first compound 0.006325 µM): 0.199
- relative viability (ChaGo-K-1; first compound 0.02 µM): 0.185
- relative viability (NCI-H441; first compound 0.0002 µM): 0.634
- relative viability (NCI-H441; first compound 0.000632 µM): 0.489
- relative viability (NCI-H441; first compound 0.002 µM): 0.293
- relative viability (NCI-H441; first compound 0.006325 µM): 0.306
- relative viability (NCI-H441; first compound 0.02 µM): 0.248
- relative viability (HCC-366; first compound 0.0002 µM): 0.097
- relative viability (HCC-366; first compound 0.000632 µM): 0.0628
- relative viability (HCC-366; first compound 0.002 µM): 0.0488
- relative viability (HCC-366; first compound 0.006325 µM): 0.0475
- relative viability (HCC-366; first compound 0.02 µM): 0.0231
- relative viability (EMC-BAC-2; first compound 0.0002 µM): 0.296
- relative viability (EMC-BAC-2; first compound 0.000632 µM): 0.321
- relative viability (EMC-BAC-2; first compound 0.006325 µM): 0.26
- relative viability (EMC-BAC-2; first compound 0.02 µM): 0.185
- relative viability (LK-2; first compound 0.0002 µM): 0.155
- relative viability (LK-2; first compound 0.000632 µM): 0.215
- relative viability (LK-2; first compound 0.002 µM): 0.157
- relative viability (LK-2; first compound 0.006325 µM): 0.188
- relative viability (LK-2; first compound 0.02 µM): 0.166
- relative viability (NCI-H1755; first compound 0.0002 µM): 0.62
- relative viability (NCI-H1755; first compound 0.000632 µM): 0.609
- relative viability (NCI-H1755; first compound 0.002 µM): 0.46
- relative viability (NCI-H1755; first compound 0.006325 µM): 0.335
- relative viability (NCI-H1755; first compound 0.02 µM): 0.373
- relative viability (COR-L 105; first compound 0.0002 µM): 0.323
- relative viability (COR-L 105; first compound 0.000632 µM): 0.382
- relative viability (COR-L 105; first compound 0.002 µM): 0.36
- relative viability (COR-L 105; first compound 0.006325 µM): 0.384
- relative viability (COR-L 105; first compound 0.02 µM): 0.344
- relative viability (SW 900; first compound 0.0002 µM): 0.453
- relative viability (SW 900; first compound 0.000632 µM): 0.296
- relative viability (SW 900; first compound 0.002 µM): 0.259
- relative viability (SW 900; first compound 0.006325 µM): 0.277
- relative viability (SW 900; first compound 0.02 µM): 0.173
- relative viability (SK-MES-1; first compound 0.0002 µM): 0.974
- relative viability (SK-MES-1; first compound 0.000632 µM): 0.459
- relative viability (SK-MES-1; first compound 0.002 µM): 0.252
- relative viability (SK-MES-1; first compound 0.006325 µM): 0.166
- relative viability (SK-MES-1; first compound 0.02 µM): 0.134
- relative viability (NCI-H1975; first compound 0.0002 µM): 0.705
- relative viability (NCI-H1975; first compound 0.000632 µM): 0.367
- relative viability (NCI-H1975; first compound 0.002 µM): 0.158
- relative viability (NCI-H1975; first compound 0.006325 µM): 0.133
- relative viability (NCI-H1975; first compound 0.02 µM): 0.0956
- relative viability (NCI-H520; first compound 0.0002 µM): 0.418
- relative viability (NCI-H520; first compound 0.000632 µM): 0.468
- relative viability (NCI-H520; first compound 0.002 µM): 0.445
- relative viability (NCI-H520; first compound 0.006325 µM): 0.376
- relative viability (NCI-H520; first compound 0.02 µM): 0.317
- relative viability (NCI-H1734; first compound 0.0002 µM): 0.308
- relative viability (NCI-H1734; first compound 0.000632 µM): 0.345
- relative viability (NCI-H1734; first compound 0.002 µM): 0.302
- relative viability (NCI-H1734; first compound 0.006325 µM): 0.341
- relative viability (NCI-H1734; first compound 0.02 µM): 0.292
- relative viability (NCI-H1666; first compound 0.0002 µM): 0.564
- relative viability (NCI-H1666; first compound 0.000632 µM): 0.506
- relative viability (NCI-H1666; first compound 0.002 µM): 0.496
- relative viability (NCI-H1666; first compound 0.006325 µM): 0.418
- relative viability (NCI-H1666; first compound 0.02 µM): 0.31
- relative viability (NCI-H596; first compound 0.0002 µM): 0.838
- relative viability (NCI-H596; first compound 0.000632 µM): 0.754
- relative viability (NCI-H596; first compound 0.002 µM): 0.365
- relative viability (NCI-H596; first compound 0.006325 µM): 0.361
- relative viability (NCI-H596; first compound 0.02 µM): 0.25
- relative viability (LOU-NH91; first compound 0.0002 µM): 0.657
- relative viability (LOU-NH91; first compound 0.000632 µM): 0.574
- relative viability (LOU-NH91; first compound 0.002 µM): 0.39
- relative viability (LOU-NH91; first compound 0.006325 µM): 0.383
- relative viability (LOU-NH91; first compound 0.02 µM): 0.247
- relative viability (NCI-H23; first compound 0.0002 µM): 0.39
- relative viability (NCI-H23; first compound 0.000632 µM): 0.314
- relative viability (NCI-H23; first compound 0.002 µM): 0.195
- relative viability (NCI-H23; first compound 0.006325 µM): 0.198
- relative viability (NCI-H23; first compound 0.02 µM): 0.166
- relative viability (H3255; first compound 0.0002 µM): 0.83
- relative viability (H3255; first compound 0.000632 µM): 0.507
- relative viability (H3255; first compound 0.002 µM): 0.241
- relative viability (H3255; first compound 0.006325 µM): 0.264
- relative viability (H3255; first compound 0.02 µM): 0.236
